Experimental data from ChEMBL document CHEMBL1201862, “PubChem BioAssay data set” (2004).
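Five compound concentrations were applied to cells in 96-well plates for 48 hours; endpoints were derived by simple linear interpolation of the resulting dose-response curve. GI50: concentration for 50% inhibition of growth.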 Active and inactive are the calls of the source. Cut-off read from the data, not from the text of the source: active = GI50 up to about 1.1 µM and inactive = higher.

Experiments:
Experiment in all cases: growth of human tumour cells (NCI), 48 h
[1] = system: UACC-257
[2] = system: NCI-H23
[3] = system: Malme-3M
[4] = system: NCI-H226
[5] = system: UO-31
[6] = system: SR
[7] = system: SK-MEL-2
[8] = system: RXF 393
[9] = system: ACHN
[10] = system: HT-29
[11] = system: OVCAR-5
[12] = system: A549
[13] = system: SF-295
[14] = system: HOP-62
[15] = system: KM12
[16] = system: K562
[17] = system: A498

Structure (SMILES) | GI50 [1] | GI50 [2] | GI50 [3] | GI50 [4] | GI50 [5] | GI50 [6] | GI50 [7] | GI50 [8] | GI50 [9] | GI50 [10] | GI50 [11] | GI50 [12] | GI50 [13] | GI50 [14] | GI50 [15] | GI50 [16] | GI50 [17]
N#Cc1c(-c2ccccc2)c(-c2ccccc2)cc2c(=O)c3ccc(Cl)cc3[nH]c12 | > 100 µM (inactive) | > 100 µM (inactive) | > 100 µM (inactive) | > 100 µM (inactive) | > 100 µM (inactive) | > 100 µM (inactive) | > 100 µM (inactive) | > 100 µM (inactive) | > 100 µM (inactive) | > 100 µM (inactive) | > 100 µM (inactive) | > 100 µM (inactive) | > 100 µM (inactive) | > 100 µM (inactive) | – | – | –
Cc1cc(O)nc(CNC(=O)c2ccc3ccccc3c2)n1 | > 100 µM (inactive) | > 100 µM (inactive) | > 100 µM (inactive) | > 100 µM (inactive) | > 100 µM (inactive) | > 100 µM (inactive) | > 100 µM (inactive) | > 100 µM (inactive) | > 100 µM (inactive) | > 100 µM (inactive) | > 100 µM (inactive) | > 100 µM (inactive) | > 100 µM (inactive) | > 100 µM (inactive) | > 100 µM (inactive) | > 100 µM (inactive) | > 100 µM (inactive)
CCCCCCCC(=O)OCC1OC(OC)C(NC(=O)N(CCCl)N=O)C(O)C1O (centres undefined) | 16.1 µM (inactive) | 8.28 µM (inactive) | 13.3 µM (inactive) | 15.7 µM (inactive) | 17.6 µM (inactive) | 0.272 µM (active) | 17.1 µM (inactive) | 16.1 µM (inactive) | 7.18 µM (inactive) | 15 µM (inactive) | 26.4 µM (inactive) | 9.91 µM (inactive) | 4.07 µM (inactive) | 4.27 µM (inactive) | 9.89 µM (inactive) | 12.4 µM (inactive) | 21.5 µM (inactive)
Nc1ccc2nc(Nc3ccc(F)cc3)cnc2c1 | > 100 µM (inactive) | – | > 100 µM (inactive) | > 100 µM (inactive) | 47.2 µM (inactive) | 36.1 µM (inactive) | > 100 µM (inactive) | – | > 100 µM (inactive) | > 100 µM (inactive) | > 100 µM (inactive) | > 100 µM (inactive) | > 100 µM (inactive) | > 100 µM (inactive) | > 100 µM (inactive) | 81.5 µM (inactive) | –
CCn1c(C)nc([N+](=O)[O-])c1Sc1ncc[nH]1 | 39.4 µM (inactive) | 29.9 µM (inactive) | 20.1 µM (inactive) | > 100 µM (inactive) | 30.5 µM (inactive) | 23.3 µM (inactive) | 25.4 µM (inactive) | – | 48.1 µM (inactive) | 78.7 µM (inactive) | > 100 µM (inactive) | > 100 µM (inactive) | > 100 µM (inactive) | > 100 µM (inactive) | > 100 µM (inactive) | 31.4 µM (inactive) | > 100 µM (inactive)
O=C1CC[C@H](NC(=O)Cc2ccccc2)C(=O)N1 [ANTINEOPLASTON A10] | > 1250 µM (inactive) | > 1250 µM (inactive) | > 1250 µM (inactive) | > 1250 µM (inactive) | > 1250 µM (inactive) | > 1250 µM (inactive) | > 1250 µM (inactive) | > 1250 µM (inactive) | > 1250 µM (inactive) | > 1250 µM (inactive) | > 1250 µM (inactive) | > 1250 µM (inactive) | > 1250 µM (inactive) | > 1250 µM (inactive) | > 1250 µM (inactive) | > 1250 µM (inactive) | –
N#Cc1ccc(Cc2ccccn2)cc1Cl | > 100 µM (inactive) | > 100 µM (inactive) | > 100 µM (inactive) | > 100 µM (inactive) | > 100 µM (inactive) | > 100 µM (inactive) | > 100 µM (inactive) | > 100 µM (inactive) | > 100 µM (inactive) | > 100 µM (inactive) | > 100 µM (inactive) | > 100 µM (inactive) | > 100 µM (inactive) | > 100 µM (inactive) | > 100 µM (inactive) | > 100 µM (inactive) | –
NC(=O)/N=C1/CCC2C3CCCC2C13 | > 100 µM (inactive) | > 100 µM (inactive) | – | 81.5 µM (inactive) | > 100 µM (inactive) | > 100 µM (inactive) | 60.7 µM (inactive) | > 100 µM (inactive) | > 100 µM (inactive) | > 100 µM (inactive) | > 100 µM (inactive) | > 100 µM (inactive) | > 100 µM (inactive) | > 100 µM (inactive) | > 100 µM (inactive) | > 100 µM (inactive) | –
COc1ccc(C(=C(C#N)C#N)c2ccc(OC)cc2)cc1 | > 100 µM (inactive) | > 100 µM (inactive) | – | > 100 µM (inactive) | > 100 µM (inactive) | 59.4 µM (inactive) | > 100 µM (inactive) | > 100 µM (inactive) | > 100 µM (inactive) | > 100 µM (inactive) | > 100 µM (inactive) | > 100 µM (inactive) | > 100 µM (inactive) | > 100 µM (inactive) | > 100 µM (inactive) | > 100 µM (inactive) | > 100 µM (inactive)
COc1ccc(/C=C2\C(=O)Nc3ccccc32)cc1OC | > 100 µM (inactive) | > 100 µM (inactive) | > 100 µM (inactive) | > 100 µM (inactive) | 86.3 µM (inactive) | – | > 100 µM (inactive) | > 100 µM (inactive) | > 100 µM (inactive) | > 100 µM (inactive) | > 100 µM (inactive) | > 100 µM (inactive) | > 100 µM (inactive) | > 100 µM (inactive) | 85.7 µM (inactive) | 44.7 µM (inactive) | > 100 µM (inactive)
COc1ccc2[nH]cc(CCNC(=O)[C@](O)(Cc3cn(C)c4ccccc34)[C@@]3(O)OCC(O)C3O)c2c1 (some centres undefined) | > 100 µM (inactive) | > 100 µM (inactive) | > 100 µM (inactive) | > 100 µM (inactive) | – | > 100 µM (inactive) | > 100 µM (inactive) | > 100 µM (inactive) | > 100 µM (inactive) | > 100 µM (inactive) | > 100 µM (inactive) | > 100 µM (inactive) | > 100 µM (inactive) | > 100 µM (inactive) | > 100 µM (inactive) | 74 µM (inactive) | –
Cc1cc([N+](=O)[O-])c(C)c2c1[nH]c1ccc(O)cc12 | > 100 µM (inactive) | > 100 µM (inactive) | > 100 µM (inactive) | > 100 µM (inactive) | > 100 µM (inactive) | 28.8 µM (inactive) | > 100 µM (inactive) | – | 99.8 µM (inactive) | > 100 µM (inactive) | > 100 µM (inactive) | > 100 µM (inactive) | > 100 µM (inactive) | > 100 µM (inactive) | > 100 µM (inactive) | 45.8 µM (inactive) | –
CCCC(=O)Oc1ccc(/C=N/NC(N)=S)nc1 | > 100 µM (inactive) | > 100 µM (inactive) | > 100 µM (inactive) | > 100 µM (inactive) | 60.1 µM (inactive) | 30 µM (inactive) | > 100 µM (inactive) | > 100 µM (inactive) | 35.6 µM (inactive) | > 100 µM (inactive) | > 100 µM (inactive) | > 100 µM (inactive) | > 100 µM (inactive) | > 100 µM (inactive) | > 100 µM (inactive) | > 100 µM (inactive) | > 100 µM (inactive)
COC(=O)c1cc2c(=O)n(C)c3ccccc3n2c1C(=O)OC | > 100 µM (inactive) | 40.7 µM (inactive) | > 100 µM (inactive) | 30.3 µM (inactive) | 63.1 µM (inactive) | – | > 100 µM (inactive) | 36.2 µM (inactive) | 83.2 µM (inactive) | 67.5 µM (inactive) | > 100 µM (inactive) | 66.4 µM (inactive) | 34.3 µM (inactive) | 16.9 µM (inactive) | 63.1 µM (inactive) | > 100 µM (inactive) | 27.2 µM (inactive)
CC[C@H]1CC(=O)c2c(cc3c(c2O)C(=O)c2ccccc2C3=O)[C@@]1(C#N)C(=O)OC(C)(C)C | 2.07 µM (inactive) | 3.24 µM (inactive) | 4.92 µM (inactive) | 3.32 µM (inactive) | 2.69 µM (inactive) | 3.66 µM (inactive) | 2.17 µM (inactive) | 5.2 µM (inactive) | 3.31 µM (inactive) | 3.37 µM (inactive) | 10.3 µM (inactive) | 3.27 µM (inactive) | 4.47 µM (inactive) | 1.77 µM (inactive) | 2.62 µM (inactive) | – | –
COc1ccc(C(=O)C(c2ccc(OCc3ccccc3)cc2)c2ccc(OCc3ccccc3)cc2)cc1 | – | > 100 µM (inactive) | > 100 µM (inactive) | > 100 µM (inactive) | > 100 µM (inactive) | > 100 µM (inactive) | > 100 µM (inactive) | > 100 µM (inactive) | > 100 µM (inactive) | > 100 µM (inactive) | > 100 µM (inactive) | > 100 µM (inactive) | > 100 µM (inactive) | > 100 µM (inactive) | > 100 µM (inactive) | > 100 µM (inactive) | –
CC(=O)OC1CC2CCN3C(=O)c4cc5c(cc4[C@H](C1OC(C)=O)C23)OCO5 (some centres undefined) | > 100 µM (inactive) | > 100 µM (inactive) | > 100 µM (inactive) | > 100 µM (inactive) | > 100 µM (inactive) | > 100 µM (inactive) | – | > 100 µM (inactive) | > 100 µM (inactive) | > 100 µM (inactive) | – | > 100 µM (inactive) | > 100 µM (inactive) | > 100 µM (inactive) | > 100 µM (inactive) | > 100 µM (inactive) | –
